{
  "source": "patent US10322112B2",
  "about": "“Compound combinations for attenuation of bacterial virulence” (priority 2016, dated 2019)",
  "key": {"P. aeruginosa (PAO1) [1]": {"test_system": "P. aeruginosa (PAO1)", "assay": "P. aeruginosa growth curves", "format": "cell-based, Pseudomonas aeruginosa", "description": "FIGS. 2A-2D are wild-type P. aeruginosa growth curves in the presence of test compounds in various media. Related to FIGS. 3, 6A and 6B, 7A and 7B, and 12. (FIG. 2A) Growth curves in complete MOPS/Glutamate. (FIG. 2B) Growth curves in complete MOPS/Glucose. […] (FIG. 2D) Growth curves in SCFM2. P. aeruginosa (PAO1) was grown in a manner identical to the pyocyanin assay (see Experimental Procedures). At each time point, growth was measured by either reading OD600 (for MOPS media) or by serially diluting culture aliquots, plating on LB agar, and counting CFUs after overnight incubation at 37° C. (for SCFM2). Compound concentrations are 100 microM for compounds 1, 2, and 3 and 25 microM for compound 4 in all experiments unless noted otherwise. Error bars represent the standard error of at least two biological replicates (n≥2). BHL=N-butyryl L-homoserine lactone (Cayman Chemicals).\nB. Bacterial Strains and Growth Conditions. Protocols for construction of genetic knockout strains are described below in Example 2. All reagents for bacterial culture were purchased from Sigma-Aldrich unless indicated otherwise. Bacteria were routinely cultured in Luria-Bertani broth (LB) at 37° C. with shaking at 200 rpm. Freezer stocks of bacterial strains were maintained at −80° C. in 1:1 LB:glycerol. Bacterial growth was routinely assessed by measuring the culture cell density according to absorbance at 600 nm (OD600341). Cell growth in simulated cystic fibrosis sputum medium (SCFM2) was determined by serially diluting assay cultures, plating on LB agar, and counting the number of colony forming units (CFU) appearing after overnight incubation at 37° C."}, "RhlR [2]": {"target": "T1, RhlR (Pseudomonas aeruginosa, UniProt P54292)", "T1 construct": "expressed in transfected cells; host or cells: E. coli JLD271", "T1 sequence (P54292 whole entry)": "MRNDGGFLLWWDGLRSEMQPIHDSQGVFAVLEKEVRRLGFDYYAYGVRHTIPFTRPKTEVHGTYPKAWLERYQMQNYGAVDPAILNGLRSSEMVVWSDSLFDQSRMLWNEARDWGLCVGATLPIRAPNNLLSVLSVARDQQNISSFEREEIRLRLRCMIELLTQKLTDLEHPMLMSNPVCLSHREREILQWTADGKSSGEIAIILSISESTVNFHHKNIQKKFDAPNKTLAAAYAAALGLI", "assay": "P. aeruginosa reporter assay, RhlR agonism (native ligand)", "format": "cell-based", "description": "(§1) P. aeruginosa reporter assays: Primary assays for RhlR activity in P. aeruginosa were performed as previously reported for LasR, [33] with the following modifications: OdDHL was added to the subculture to a final concentration of 100 nm immediately before it was dispensed into plates to induce expression of RhlR. For RhlR antagonism assays, synthetic ligand (100 mm) was screened against BHL at its EC50 (30 mm). For RhlR agonism assays, synthetic ligand (100 mm) was screened alongside and compared to BHL (at 900 mm) for the system. Dose-response reporter gene assays were performed according to these protocols by using various concentrations of compound."}, "RhlR [3]": {"target": "T1, RhlR", "assay": "E. coli reporter gene antagonism assay, RhlR", "format": "cell-based", "description": "Percent agonism of a given non-native inducer in a given bacterium and QS system receptor is measured with resepct to the maximum level of agonism (activation) by the native ligand of that receptor in the given bacterium. Percent antagonism is measured in competitive assays. The QS system of interest is activated to 100% with added or endogenous native ligand and the % antagonism of the non-native inducer is assessed with respect to 100% activation by the native inducer. The native ligand which induces LasR is OdDHL, which induces RhlR is BHL and which induces PqsR is PQS. As described herein and in cited references, assays for assessment of % agonism or % atangonism may be performed in E. coli systems (heterologous) or in the bacterium of interest, e.g., Pseudomonas. Dependent upon the assay system employed native ligand may be endogenously present or it may be exogenously supplied to the assay system. […] In antagonism assays using the native strains with functional QS systems, e.g., those of P. aeruginosa, endogenous native ligand is made in the system, so no native ligand is added. In native strains having one or more non-functional QS systems (mutant strains), e.g., P. aeruginosa mutants with non-functional QS systems, native ligand is added at about 10-100× the EC50 of the native ligand. In the agonism assay, native ligand is added as a control. Details of the assays are provided herein in Example 9 and in references cited in Example 9."}, "RhlR [4]": {"target": "T1, RhlR", "assay": "P. aeruginosa reporter assay, RhlR antagonism", "format": "cell-based", "description": "as §1"}, "P. aeruginosa (PAO1) [5]": {"test_system": "P. aeruginosa (PAO1)", "assay": "Rhamnolipid assay", "format": "cell-based, Pseudomonas aeruginosa", "settings": "MOPS Glutamate and Glucose media, complete or iron/phosphate depleted, 17 h, 100 μM (compounds 1, 2, 3), 25 μM (compound 4), relative to DMSO", "description": "(§2) A. Pyocyanin Assay Protocol. The amount of pyocyanin in P. aeruginosa culture supernatants was measured following a reported protocol (O'Loughlin et al., 2013) with modifications. A 10 mL overnight culture of P. aeruginosa PAO1 was grown for 16 h. DMSO stock solutions of test compounds (20 mM) were prepared, and 10 μL or 5 μL aliquots were added to sterile 15 mL borosilicate glass test tubes. An inoculating culture was prepared by diluting the overnight culture 1:100 into freshly prepared assay medium (see above), and 2 mL aliquots of this subculture were added to each test tube (0.5% DMSO, final). The cultures were grown for 17 h, and the final cell density measured by reading OD600. Relative pyocyanin levels were measured by first pelleting 1.5 mL of well-mixed culture at 4,000 g for 10 min, transferring 200 μL of the resulting supernatant to a clear, plastic 96-well microtiter plate, and reading absorbance at 695 nm. Media background absorbance (measured from a “no bacteria” control) was subtracted, the resulting values growth normalized by dividing by the final OD600378, and the data plotted relative to a DMSO-treated positive control. B. Rhamnolipid Assay Protocol. Rhamnolipid was quantified following a reported protocol (Koch et al., 1991) with modifications. Assay cultures were prepared and grown in an identical manner to the pyocyanin assay above. Aliquots of the final culture supernatant (1 mL) were transferred to 1 dram glass vials and extracted twice with 1 mL diethyl ether. The pooled organic fractions were evaporated to dryness, and the resulting residue reconstituted in 200 μL de-ionized water. […] After briefly cooling to room temperature, 200 μL of the resulting yellow to yellow-orange solution was transferred to a clear 96-well microtiter plate, and the absorbance at 421 nm measured. Media background absorbance (measured from a “no bacteria” control) was subtracted, the resulting values growth normalized by dividing by the final OD600, and the data plotted relative to a DMSO-treated positive control. […] The amount of elastase B in P. aeruginosa culture supernatants was measured following a reported protocol (Geske et al., 2007) with modifications. […] To quantify elastase B activity, the undigested elastin was pelleted by centrifugation of the assay plate at 1,500 g for 10 min, after which 100 μL of the supernatant was transferred to a new, clear 96-well plate, and the absorbance at 490 nm measured. Media background absorbance (measured from a “no bacteria” control) was subtracted, the resulting values growth normalized by dividing by the final OD600, and the data plotted relative to a DMSO-treated positive control."}, "P. aeruginosa (PAO1) [6]": {"test_system": "P. aeruginosa (PAO1)", "assay": "Elastase B assay", "format": "cell-based, Pseudomonas aeruginosa", "settings": "MOPS Glutamate and Glucose media, complete or iron/phosphate depleted, 17 h, 100 μM (compounds 1, 2, 3), relative to DMSO", "description": "as §2"}, "P. aeruginosa (PAO1) [7]": {"test_system": "P. aeruginosa (PAO1)", "assay": "Pyocyanin assay", "format": "cell-based, Pseudomonas aeruginosa", "description": "A. Pyocyanin Assay Protocol. The amount of pyocyanin in P. aeruginosa culture supernatants was measured following a reported protocol (O'Loughlin et al., 2013) with modifications. A 10 mL overnight culture of P. aeruginosa PAO1 was grown for 16 h. DMSO stock solutions of test compounds (20 mM) were prepared, and 10 μL or 5 μL aliquots were added to sterile 15 mL borosilicate glass test tubes. An inoculating culture was prepared by diluting the overnight culture 1:100 into freshly prepared assay medium (see above), and 2 mL aliquots of this subculture were added to each test tube (0.5% DMSO, final). The cultures were grown for 17 h, and the final cell density measured by reading OD600. Relative pyocyanin levels were measured by first pelleting 1.5 mL of well-mixed culture at 4,000 g for 10 min, transferring 200 μL of the resulting supernatant to a clear, plastic 96-well microtiter plate, and reading absorbance at 695 nm. Media background absorbance (measured from a “no bacteria” control) was subtracted, the resulting values growth normalized by dividing by the final OD600378, and the data plotted relative to a DMSO-treated positive control. B. Rhamnolipid Assay Protocol. Rhamnolipid was quantified following a reported protocol (Koch et al., 1991) with modifications. Assay cultures were prepared and grown in an identical manner to the pyocyanin assay above. Aliquots of the final culture supernatant (1 mL) were transferred to 1 dram glass vials and extracted twice with 1 mL diethyl ether. The pooled organic fractions were evaporated to dryness, and the resulting residue reconstituted in 200 μL de-ionized water. In a 1.7 mL plastic centrifuge tube, 50 μL of this extract was diluted into 450 μL of a solution of 0.19% (w/v) orcinol in 50% (v/v) concentrated H2SO4 (or 20 μL extract into 480 μL orcinol solution for cultures grown in MOPS Glucose medium). The tubes were vortexed thoroughly to mix and incubated in an 80° C. heating block for 30 min. After briefly cooling to room temperature, 200 μL of the resulting yellow to yellow-orange solution was transferred to a clear 96-well microtiter plate, and the absorbance at 421 nm measured. Media background absorbance (measured from a “no bacteria” control) was subtracted, the resulting values growth normalized by dividing by the final OD600, and the data plotted relative to a DMSO-treated positive control. C. Elastase B Assay Protocol. The amount of elastase B in P. aeruginosa culture supernatants was measured following a reported protocol (Geske et al., 2007) with modifications. Assay cultures were prepared and grown in an identical manner to the pyocyanin assay above. Aliquots of the final culture supernatant (50 μL) were added to the wells of a clear, plastic 96-well plate. To each well, 150 μL of 0.5% (w/v) elastin-congo red conjugate (Elastin Products Co.) in Tris buffer (10 mM Tris-HCl, 1 mM CaCl2, pH 7.2) was added. The plate was sealed with a polypropylene storage mat (Costar 3080) and incubated in a 37° C. shaking incubator (200 rpm) attached to a Labquake rotator for 12 h (for experiments in SCFM2) or 24 h (for experiments in MOPS medium). To quantify elastase B activity, the undigested elastin was pelleted by centrifugation of the assay plate at 1,500 g for 10 min, after which 100 μL of the supernatant was transferred to a new, clear 96-well plate, and the absorbance at 490 nm measured. Media background absorbance (measured from a “no bacteria” control) was subtracted, the resulting values growth normalized by dividing by the final OD600, and the data plotted relative to a DMSO-treated positive control."}},
  "note": "Several values for one entry are separate records, joined by “and”; a condition that tells them apart may be missing. Equal entries are not always repeated. Entries after “also recorded” stand apart in the source; their conditions may differ.",
  "data": [
    {"smiles": "CCCC(=O)N[C@H]1CCOC1=O", "note": "[BHL, N-butyryl L-homoserine lactone, reference compound]", "values": [
      {"measurement": "growth in MOPS Glutamate", "setting": "P. aeruginosa (PAO1) [1]; complete MOPS Glutamate, 100 μM", "result": "also produced the growth delay"},
      {"measurement": "EC50", "setting": "RhlR [2]", "result": "~8", "unit": "µM"}
    ]},
    {"smiles": "O=C(COc1ccc(I)cc1)N[C@H]1CCSC1=O", "note": "[RN22]", "values": [
      {"measurement": "IC50", "setting": "RhlR [3]", "result": 19.6, "unit": "µM"},
      {"measurement": "IC50", "setting": "RhlR [4]; IC50, antagonism, P. aeruginosa reporter, 95% CI: 19.6 μM-50.4 μM", "result": "31.4 µM and 31 µM"},
      {"measurement": "concentration blocking native ligand activity by 50%, relative to native ligand EC50", "setting": "RhlR [4]; IC50 in P. aeruginosa compared with EC50 of native RhlR ligand", "result": "less than 4 fold"}
    ]},
    {"smiles": "CCCCCCCCCC(=O)CC(=O)Nc1ccccc1", "note": "[compound 1]", "values": [
      {"measurement": "effect on cell growth, compound 1", "setting": "P. aeruginosa (PAO1) [1]; MOPS Glutamate, 100 microM compound 1", "result": "no effect on cell growth"},
      {"measurement": "rhamnolipid production, single compound screens", "setting": "P. aeruginosa (PAO1) [5]", "result": "little to no effect"},
      {"measurement": "elastase B production, single compound screens", "setting": "P. aeruginosa (PAO1) [6]", "result": "little to no effect"},
      {"measurement": "pyocyanin production, single compound screens", "setting": "P. aeruginosa (PAO1) [7]; MOPS Glutamate and Glucose media, complete or iron/phosphate depleted, 17 h, 100 μM (compounds 1, 2, 3), 25 μM (compound 4), relative to DMSO", "result": "strong pyocyanin inhibition, unless phosphate concentrations were low"},
      {"measurement": "pyocyanin production over time, low phosphate medium", "setting": "P. aeruginosa (PAO1) [7]; MOPS Glutamate with phosphate diluted 10-fold, 100 microM compound 1", "result": "does not attenuate pyocyanin production; also recorded: little to no effect"},
      {"measurement": "pyocyanin production over time, complete medium", "setting": "P. aeruginosa (PAO1) [7]; complete MOPS Glutamate, 100 microM compound 1", "result": "eliminated pyocyanin synthesis"}
    ]}
  ]
}
